The values below come from US4260806A, “Carbocyclic thromboxane A2 analogues” (priority 1979, dated 1981).

Like-named read-outs stand apart in the source and are kept apart here.

Series [1] relates to blood platelet aggregation. The note with it: literature; cited from earlier work.
Another series deals with cat coronary arteries. The series can be described thus: constriction of isolated perfused cat coronary arteries (perfusion pressure at constant flow). It is filed as cell-based. The protocol: Thromboxane A2 analogues (up to 4 μl of a 2.5 mM solution in ethanol) were tested for their effects on cat coronary arteries continuously perfused with 10 ml Krebs-Henseleit solution as described below.
Cats of either sex (2.5-3.5 kg) were anesthetized with sodium pentobarbital (30 mg/kg) given intravenously. […] A 20-gauge stainless steel cannula was inserted into the right coronary artery via the coronary ostium. Distal to the cannula, approximately 1 cm of coronary artery was dissected free of surrounding tissue. The section of right coronary artery with the cannula in place was excised from the heart and immediately transferred to a constant flow perfusion apparatus.
The perfusion apparatus consists of a reservoir containing 20 ml of warm (37° C.) oxygenated (95% O2 +5% CO2) K-H solution which bathes the coronary artery and serves as recirculating perfusate. An increase in perfusion pressure signifies […]. Following an initial 1 hr. equilibrium period, vascular responsiveness was established by adding 25 mM KCl. […] Fresh K-H dilutions of stock thromboxane analog concentrations were added to the perfusate reservoir in 0.1-0.2 ml volumes. […] Constriction of the arteries was induced by addition of 15 or 30 nM 9,11-azo-prostaglandinendoperoxide (azo-PGH2), or 1 μM 9,11-methanoepoxy-PGH2.

In series [2] the test system is New Zealand white rabbits. The series can be described thus: effect of CTA2 on intact anesthetized rabbits. It is filed as in vivo, rabbit. The procedure: To study the effect of CTA2 on intact animals, New Zealand white rabbits 2-3.5 kg were anesthetized with pentobarbital sodium (25 mg/kg) and placed in the supine position. The right femoral and external jugular veins and the left common carotid artery were cannulated with polyethylene catheters. Standard limb needle electrodes were placed subcutaneously for recording the electrocardiogram (ECG). The trachea was cannulated with a glass tube connected to a pressure transducer for the recording of airway pressure. Mean arterial blood pressure (MABP), central venous pressure (CVP), airway pressure, and lead III of the ECG were continuously recorded on a Grass Model 7 oscillographic recorder. Sodium arachidonate (95% pure, Sigma Chamical) at 2.0 mg/kg or CTA2 (125 μg/kg) were injected into the […], and the rabbit observed until death. Two ml blood samples were drawn into 25 mM EDTA just prior to injection of drug and just prior to death for radio-immunoassay of thromboxane B2.

Series [3] deals with human platelet-rich plasma. Description: platelet aggregation in citrated human platelet-rich plasma (aggregometer). It is filed as cell-based. The procedure:
Platelet aggregation was studied in an aggregometer (Chronolog Corp., Phila., PA) using 0.5 ml citrated human platelet-rich plasma at 35° C. One minute after addition of analogue (up to 2 μl of a 25 mM solution in ethanol) aggregation was initiated by addition of sodium arachidonate (0.3-0.5 mM), ADP (2 μM) collagen (1 μg/ml), epinephrine (50 μM), 9,11-azo-PGH2 (0.1-0.6 μM). The analogues were also tested for their effects on the inhibition of ADP-induced aggregation by 2 nM prostacyclin or 20 nM prostaglandin D2.

Series [4] relates to formation of thromboxane B2. The series can be described thus: formation of thromboxane B2.
Another series has as its system coronary artery. Particulars: normal and high concentrations; literature; cited from earlier work.
The conditions of series [5]: cited from earlier work.

Turning to `CCCCCC/C=C/C1C2CC(ON2)C1C/C=C\CCCC(=O)O` (stereo not drawn) [15-deoxy-9,11-epoxyimino-PGH2], the “effect on platelet aggregation” value in series [1] is given as “inhibits platelet aggregation”.

Turning to `CCCCCC/C=C/C1C2CC(N=N2)C1C/C=C\CCCC(=O)O` (stereo not drawn) [15-deoxy-9, 11-azo-PGH2], the “effect on platelet aggregation” value in series [1] is “inhibits platelet aggregation”.

With `CCCCC[C@H](O)/C=C/C1CC2CC(C2)C1C/C=C\CCCC(=O)O` (stereo partly drawn) [CTA2, Carbocyclic Thromboxane A2, free acid], the “rank order of constrictor potency” value in the series on cat coronary arteries (CTA2 vs azo-PGH2 >9,11-methanoepoxy-PGH2 >9,11 epoxymethano-PGH2 >>PGH2 >>Thromboxane B2) is “more potent a constrictor”. For the same molecule, in the series with cat coronary arteries (cat coronary arteries), the “vasoconstricting potency compared with natural thromboxane A2” value was “potencies comparable to those of the natural thromboxane A2”. Further, in the series on cat coronary arteries (concentrations up to 10^-7 M), the “antagonism of the coronary constrictor effects of 9,11-methanoepoxy PGH2” value is “did not antagonize”. The “constriction (increased perfusion pressure at constant flow)” value in the series on cat coronary arteries (isolated perfused cat coronary arteries) was “dose-dependent constriction”. Also, the “potency relative to 9,11-azo PGH2 (EC20)” value in the series with cat coronary arteries (relative to 9,11-azo PGH2) is on record as 4 times. For the same molecule, in the series with cat coronary arteries (relative to 9,11-methanoepoxy PGH2 and 9,11-epoxymethano PGH2), the “potency relative to the other two PGH2 derivatives (EC20)” value is given as 5-6 times. Moreover, in the series on cat coronary arteries (relative to TB2), the “potency relative to TB2, by concentration giving a 20 mm Hg increase in coronary perfusion pressure (EC20)” value is 10,000 times. In series [2] (anesthetized rabbit, 125 μg/kg intravenously, typical response), the “time of death after injection” value is “nine”. For the same molecule, the “sudden cardiac death in rabbits” value in series [2] (severe myocardial ischemia without coronary thrombosis) is on record as “induces sudden cardiac death”. Further, in series [3], the “inhibition of arachidonic acid induced platelet aggregation” value is recorded as “potent inhibitor” and the “intrinsic ability to aggregate platelets” value is on record as “no intrinsic ability to agreggate plateletes”. In series [3] (1-2 μM), the “effect on arachidonic acid induced aggregation” value was “delayed the onset of platelet aggregation without actually inhibiting the magnitude of the overall response”. Moreover, the “inhibition of platelet aggregation to a variety of prostanoids” value in series [3] (arachidonic acid, 9-11-azo PGH2, 9,11-methanoepoxy PGH2 and 9,11-epoxymethano PGH2) is listed as “very potent inhibitor”. For the same molecule, the “prevention of induced platelet aggregation” value in series [3] (at 4 to 5 μM) is listed as “completely prevented”. Moreover, in series [3] (lower concentrations, 1 to 4 μM), the “prevention of induced platelet aggregation” value is “only partially protective”. Besides, the “induction of platelet aggregation in vitro” value in series [3] (up to concentrations of 100 μM) is “failed to induce platelet aggregation”. In addition, the “inhibition of the formation of thromboxane B2” value in series [4] is reported as “selectively inhibits”.

Consider `CCCCC[C@@H](O)/C=C/[C@H]1C[C@H]2C[C@@H]([C@@H]1C/C=C\CCCC(=O)O)C2(C)C` [PTA2, pinane thromboxane A2, reference compound], for which the “antagonism of the coronary constrictor effects of CTA2” value with cat coronary arteries was “almost completely antagonized”. The “effect on coronary artery contraction” value in the series on coronary artery is recorded as “inhibits coronary artery contraction”.

Turning to `CCCCC[C@H](O)/C=C/[C@H]1O[C@H]2C[C@H](O2)[C@@H]1C/C=C\CCCC(=O)O` [TA2, thromboxane A2], the half-life in series [5] (pH 7.4 and 37° C.) was 30 s.

As for `CCCCC[C@H](O)/C=C/[C@@H]1[C@H]2C/C(=C/CCCC(=O)O)O[C@H]2C[C@H]1O` [prostacyclin, 6,9 α-oxido-11α, 15 α-dihydroxyprosta (Z), 5, E (13)-dienoic acid], the half-life result in series [5] (physiological conditions) is “about 2 minutes”. Also, in series [1], the “effect on platelet aggregation” value is reported as “most potent inhibitor of blood platelet aggregation”.
